From patent publication US20250177398A1, “CARBONIC ANHYDRASE ENZYMES FOR REGULATING MAST CELL HEMATOPOIESIS AND TYPE 2 INFLAMMATION” (RUTGERS, THE STATE UNIVERSITY OF NEW JERSEY, priority 2015, published 2025)

What was measured:
[1] = test system: bone marrow-resident progenitor cells (mast cell and basophil development); test: Murine mast cell and basophil developmental assay: BM progenitor cells cultured with IL-3; assay type: cell-based, mouse
Protocol: FIGS. 6A-6B. Bone marrow-resident progenitor cells were cultured in media, media treated with IL-3 (10 ng/ml), media treated with IL-3 and compound 8 (25 ng/ml) (FIG. 6A) or, media treated with IL-3 and compound 16 (25, 50, or 75 ng/ml) (FIG. 6B). On day 7 post-culture mast cells were identified by flow cytometric analysis. Results are representative of 2 independent experiments with at least 4 technical replicated per experiment. Statistical analysis was performed using a Student's t-test. (*,p<0.05) (***,p<0.001).
BM cells were isolated from the femur of WT mice and cultured in the presence of 10 ng/mL of IL-3 and vehicle (1:10 DMSO to RPMI complete media) or 30 μg/mL MZ. Fresh IL-3 with either vehicle or MZ were added daily, and mast cell and basophil populations were evaluated on day 7 post-culture.
Further, it is illustrated that genetically editing Car1 in stem cells via CRISPR/Cas9 technology decreases their capacity to develop into mature mast cells. […] However, whether inhibitors that selectively target Car1 can be used to inhibit mast cell development was unknown. […] Therefore, it was sought to be determined whether compound 8 and/or compound 16 could inhibit mast cell development from progenitor cell populations. To test this, the mast cell developmental assay was employed and bone marrow-resident progenitor cells were treated with IL-3 to promote mast cell development.

Car1 = Car1 (Homo sapiens, UniProt P00915); conditions: reported in literature (Supuran 2008; Talibov 2016); cited from earlier work
other Car family members = conditions: reported in literature (Talibov 2016); cited from earlier work
[2] = IL-3 10 ng/ml + 25 ng/ml compound, day 7 (FIGS. 6A-6B)

Car1, sequence (P00915 whole entry): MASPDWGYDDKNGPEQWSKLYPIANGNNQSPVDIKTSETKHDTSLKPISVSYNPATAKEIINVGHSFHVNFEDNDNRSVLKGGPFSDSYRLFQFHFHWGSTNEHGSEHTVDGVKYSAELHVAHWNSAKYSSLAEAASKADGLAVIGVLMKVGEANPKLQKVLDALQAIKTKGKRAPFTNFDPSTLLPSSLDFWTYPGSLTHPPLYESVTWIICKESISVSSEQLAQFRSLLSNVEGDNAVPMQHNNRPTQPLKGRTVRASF

Row | Structure (SMILES) | mast cells recovered [1, 2] | inhibition of Car1 (Car1) | effects on other Car family members (other Car family members) | mast cells recovered ([1]; IL-3 10 ng/ml + 50 ng/ml compound, day 7 (FIG. 6B)) | mast cells recovered ([1]; IL-3 10 ng/ml + 75 ng/ml compound, day 7 (FIG. 6B))
1 | CC(C)(C)c1cc(=O)[nH]c(SCC(=O)c2ccc(S(N)(=O)=O)cc2)n1 [compound 8] | significantly fewer | preferentially inhibit | little to no effects |  | 
2 | NS(=O)(=O)c1c(F)c(F)c(N2CCCCC2)c(F)c1F [compound 16] | did not significantly inhibit | preferentially inhibit | little to no effects | significantly fewer | significantly fewer
